Earlier results in patent US20250283177A1, “BIOMARKERS AND METHODS OF USE THEREOF FOR TREATMENT OF PERIPHERAL T-CELL LYMPHOMA” (BOARD OF REGENTS OF THE UNIVERSITY OF NEBRASKA, priority 2022, published 2025).
Read-outs that look alike come from different tables or passages of the source.

Columns and labels:
[1] = tested on: peripheral T-cell lymphoma (PTCL); conditions: for Overall response rate by common subtype: Phase II studies

Molecule | Overall response rate by common subtype ([1]; subtype AITL) | Overall response rate by common subtype ([1]; subtype ALCL) | Overall response rate by common subtype ([1]; subtype PTCL-NOS) | Benefit in PTCL subgroup (subgroups of PTCL; ALK+ALCL) | Responsiveness to therapy ([1]; ALK(−) ALCL) | Benefit in PTCL subgroup (subgroups of PTCL; CD30+ PTCL, particularly ALCL) | Benefit in PTCL subgroup (subgroups of PTCL; ATLL)
O=C(/C=C/c1cccc(S(=O)(=O)Nc2ccccc2)c1)NO [Belinostat] | 46% | 15% | 23% |  |  |  | 
C[C@@H](Oc1cc(-c2cnn(C3CCNCC3)c2)cnc1N)c1c(Cl)ccc(F)c1Cl [Crizotinib] |  |  |  | striking benefits |  |  | 
C#CCC(Cc1cnc2nc(N)nc(N)c2n1)c1ccc(C(=O)N[C@@H](CCC(=O)O)C(=O)O)cc1 (stereo partly shown) [Pralatrexate] | 8% | 29% | 31% |  |  |  | 
Brentuximab vedotin | 54% | 86% | 33% |  | highly responsive | striking benefits | 
mogamulizumab (antibody, chains of the INN, looked up, V domains shown) VH: EVQLVESGGDLVQPGRSLRLSCAASGFIFSNYGMSWVRQAPGKGLEWVATISSASTYSYYPDSVKGRFTISRDNAKNSLYLQMNSLRVEDTALYYCGRHSDGNFAFGYWGQGTLVTVSS VL: DVLMTQSPLSLPVTPGEPASISCRSSRNIVHINGDTYLEWYLQKPGQSPQLLIYKVSNRFSGVPDRFSGSGSGTDFTLKISRVEAEDVGVYYCFQGSLLPWTFGQGTKVEIK |  |  |  |  |  |  | striking benefits
